Source: patent US7067517B2 (priority 2001, dated 2006)
Structures can show the parent of a compound that is named as a salt.

target: T1, Hormone-sensitive lipase (HSL) (Homo sapiens, UniProt Q05469); assay: Test 2848.2: high-volume screening assay, para-nitrophenyl butyrate (p-NPB) substrate; assay type: biochemical; details: UV-abs 405 nm, 20 min room temp, % Eff (% Inhibition)
T1 sequence (Q05469 1-1076): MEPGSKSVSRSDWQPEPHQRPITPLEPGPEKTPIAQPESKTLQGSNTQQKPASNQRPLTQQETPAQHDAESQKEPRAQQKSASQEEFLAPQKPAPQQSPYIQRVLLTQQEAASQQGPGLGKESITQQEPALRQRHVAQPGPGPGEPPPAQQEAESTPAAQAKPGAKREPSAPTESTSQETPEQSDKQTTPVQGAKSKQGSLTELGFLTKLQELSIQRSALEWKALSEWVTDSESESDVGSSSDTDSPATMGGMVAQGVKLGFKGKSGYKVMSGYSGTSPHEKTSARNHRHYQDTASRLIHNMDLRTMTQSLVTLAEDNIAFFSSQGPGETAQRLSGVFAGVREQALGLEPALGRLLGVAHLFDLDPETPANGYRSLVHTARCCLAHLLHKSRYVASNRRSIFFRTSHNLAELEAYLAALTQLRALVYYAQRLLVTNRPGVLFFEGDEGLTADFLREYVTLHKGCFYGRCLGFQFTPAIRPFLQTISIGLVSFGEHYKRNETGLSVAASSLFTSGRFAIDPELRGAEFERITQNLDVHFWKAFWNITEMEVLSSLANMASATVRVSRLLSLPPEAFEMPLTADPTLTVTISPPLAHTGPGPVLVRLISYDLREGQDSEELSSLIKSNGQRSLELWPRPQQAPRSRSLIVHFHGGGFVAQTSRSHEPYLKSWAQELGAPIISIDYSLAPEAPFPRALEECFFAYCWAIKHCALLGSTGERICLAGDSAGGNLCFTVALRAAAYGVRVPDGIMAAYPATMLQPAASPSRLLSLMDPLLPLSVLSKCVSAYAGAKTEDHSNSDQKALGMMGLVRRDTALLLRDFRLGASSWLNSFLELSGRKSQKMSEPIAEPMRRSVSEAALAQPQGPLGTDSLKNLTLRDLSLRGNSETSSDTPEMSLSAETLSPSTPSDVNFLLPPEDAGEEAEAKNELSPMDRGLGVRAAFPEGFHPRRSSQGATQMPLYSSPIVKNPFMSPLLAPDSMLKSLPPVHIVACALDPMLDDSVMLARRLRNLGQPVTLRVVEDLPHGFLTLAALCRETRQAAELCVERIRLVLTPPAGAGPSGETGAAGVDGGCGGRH
From the text: Materials. The Hormone-sensitive lipase was provided by Dr. Cecilia Holm, from Lund University Sweden or produced and purified by Novo Nordisk (NN) using the reagents and protocols used by Dr. Holm. The substrates used are: ^3H-labeled triolein (TO) from Amersham, Buckinghamshire, U.K. cat No. TRA191; 5–20 Ci/mmol dissolved in toluene, triolein (Sigma, Cat. No. T-1740), fluorochrome-labeled triacylglyceride (cis-octadec-9-enoic acid 2-[12-(7-nitrobenzo[1,2,5]oxadiazol-4-ylamino)dodecanoyloxy]-1-cis-octadec-9-enoyloxymethyl-ethyl ester) prepared by Novo Nordisk (NN) by conventional methods, and 1,3-(di[^3H]-stearin), 2-(PEG-Boitin)glycerol prepared in collaboration with Amersham Pharmacia Biotech, UK and described in WO 01/073442. Phosphatidyl choline (PC) and phosphatidyl inositol (PI) are from Sigma (St Luis Mo. cat. Nos. P-3556 and P-5954 respectively). All other reagents are of commercial grade and obtained from various commercial sources.
2848.2: This high-volume screening assay uses para-nitrophenyl butyrate (p-NPB) as substrate for HSL. HSL cleaves p-NPB and the reaction is monitored as an increase in the concentration of para-nitrophenol (p-NP). p-NP can be monitored as an increase in UV-absorbance at 405 nm. The reaction is carried out at room-temp. for 20 min. The action is not stopped, but instead UV-abs is measured at a fixed time (20 min.) Due to autohydrolysis of the substrate the reaction is read at t=0 min. too and t=20 min. and the increase in Abs is calculated as the difference between the two readings. When a compound that inhibits HSL is present, it results in a relative decrease in UV-absorbance. % Eff(% Inhibition)=(S−S0Eff)/(SmaxEff−S0Eff)×100 Where S=signal in UV-abs., S0Eff=assaybuffer alone, SmaxEff=Assaybuffer with the lipase inhibitor.

Point of comparison: CCCCCCC(C=Cc1ccc(Cl)cc1)=NOC(=O)NC1CCCCC1 [Example 106, 1-(4-Chlorophenyl)-non-1-en-3-one O-cyclohexylcarbamoyl-oxime], “Test 2848.2 HSL % Inhibition All” value 23.8%. Against it:
- Cc1ccc(NC(C=O)=NOC(=O)NC2CCCCC2)cc1 [Example 104, 2-Oxo-N-p-tolylacetamide O-(cyclohexylcarbamoyl)-oxime] — lower, 19.8%
- O=C(NC1CCCCC1)ON=C1c2ccccc2CCc2ccccc21 [Example 105, 10,11-Dihydro-dibenzo[a,d]cyclohepten-5-one O-cyclohexylcarbamoyl-oxime] — higher, 26.8%
- CC12CCC(CC1=NOC(=O)NC1CCCCC1)C2(C)C (centres unmarked) [Example 107, 1,7,7-Trimethyl-bicyclo[2.2.1]heptan-2-one O-cyclohexylcarbamoyl-oxime] — higher, 59.9%
- CC(C)CCC(C=Cc1ccc(Br)cc1)=NOC(=O)NC(C)C [Example 108, 1-(4-Bromophenyl)-6-methyl-hept-1-en-3-one O-isopropylcarbamoyl-oxime] — higher, 37.2%
- CCCCCCC(C=Cc1ccc(Cl)cc1)=NOC(=O)NC(C)C [Example 109, 1-(4-Chloro-phenyl)-non-1-en-3-one O-isopropylcarbamoyl-oxime] — lower, 15.9%
- CNC(=O)ON=Cc1c(Br)cnn1Cc1ccc(Cl)cc1 [Example 110, 4-Bromo-2-(4-chlorobenzyl)-2H-pyrazole-3-carbaldehyde O-methylcarbamoyl-oxime] — lower, 18.8%
- CCCNC(=O)ON=C(C=Cc1ccc(Br)cc1)CCC(C)C [Example 111, 1-(4-Bromophenyl)-6-methyl-hept-1-en-3-one O-propylcarbamoyl-oxime] — higher, 36.2%
- CN(C)C(=O)On1ccc2ccc(S(C)(=O)=O)cc21 [Example 114, Dimethylcarbamic acid 6-methanesulfonyl-indol-1-yl ester] — higher, 42.4%
- CN(C)C(=O)On1nnc2ccccc2c1=O [Example 116, Dimethylcarbamic acid 4-oxo-1,2,3-benzotriazin-3-yl ester] — lower, 23.5%

system: not given; assay: not given; details: not given

Point of comparison: O=C(Oc1ccc(Oc2ccc(C(F)(F)F)cn2)cc1)N1CCN(CCO)CC1 (as salt: hydrochloride), melting point 255 °C. Against it:
- Cc1c(Cc2ccc(F)cc2)c(=O)oc2cc(OC(=O)N(C)c3ccccc3)ccc12 — lower, 185 to 186 °C
- O=C(Oc1ccc(Oc2ccc(C(F)(F)F)cn2)cc1)N1CCN(c2ccccc2)CC1 — lower, 117 °C
- CN(C(=O)On1cccn1)c1ccccc1 — lower, 63 to 67 °C
- O=C(Oc1ccc(Oc2ccc(C(F)(F)F)cn2)cc1)N1CCN(c2ccc3c(c2)OCO3)CC1 — lower, 146 to 147 °C
- O=C(Oc1ccc(Oc2ccc(C(F)(F)F)cn2)cc1)N1CCN(c2ncccn2)CC1 — lower, 120 to 121 °C
- O=C(Oc1ccc(Oc2ccc(C(F)(F)F)cn2)cc1)N1CCN(c2ccc(Cl)c(Cl)c2)CC1 — lower, 115 to 116 °C
- O=C(Oc1ccc(Oc2ccc(C(F)(F)F)cn2)cc1)N1CCN(c2cnccn2)CC1 — lower, 160 to 161 °C
- O=C(Oc1ccc(Oc2ccc(C(F)(F)F)cn2)cc1)N1CCCN(Cc2ccc(-c3ccccc3)cc2)CC1 — lower, 143 °C
- O=C(Oc1ccc(Oc2ccc(C(F)(F)F)cn2)cc1)N1CCN(c2ncccc2C(F)(F)F)CC1 — lower, 131 to 132 °C
- Cc1cc(C)nc(Sc2ccc(OC(=O)N3CCN(Cc4cccc(F)c4)CC3)cc2)n1 — lower, 117 to 118 °C
- COc1ccc(N2CCN(C(=O)Oc3ccc(Oc4ccc(C(F)(F)F)cn4)cc3)CC2)c(OC)c1 — lower, 98 to 99 °C
- O=C(Oc1ccc(Oc2ccc(C(F)(F)F)cn2)cc1)N1CC2CC1CN2Cc1ccccc1 (centres unmarked) — lower, 114 to 115 °C
- O=C(Oc1ccc(Oc2ccc(C(F)(F)F)cn2)cc1)N1CCN(Cc2ccc3c(c2)OCO3)CC1 (as salt: hydrochloride) — lower, 239 to 240 °C
- O=C(Oc1ccc(Oc2ccc(C(F)(F)F)cn2)cc1)N1CCN(Cc2ccccc2)CC1 (as salt: hydrochloride) — lower, 229 to 231 °C
- O=C(CN1CCN(C(=O)Oc2ccc(Oc3ccc(C(F)(F)F)cn3)cc2)CC1)N1CCCC1 (as salt: hydrochloride) — lower, 224 °C
- O=C(Oc1ccc(Oc2ccc(C(F)(F)F)cn2)cc1)N1CCN(C2CCCC2)CC1 (as salt: hydrochloride) — higher, 294 to 295 °C
- CCCCN1CCN(C(=O)Oc2ccc(Oc3ccc(C(F)(F)F)cn3)cc2)CC1 (as salt: hydrochloride) — lower, 221 to 222 °C
- O=C(Oc1ccc(Oc2ccc(C(F)(F)F)cn2)cc1)N1CCN(c2ccccn2)CC1 (as salt: hydrochloride) — lower, 247 to 248 °C
- CC(C)(C)c1ccc(CN2CCN(C(=O)Oc3ccc(Oc4ccc(C(F)(F)F)cn4)cc3)CC2)cc1 (as salt: hydrochloride) — higher, 274 to 275 °C
- O=C(Oc1ccc(Oc2ccc(C(F)(F)F)cn2)cc1)N1CCN(Cc2ccc(F)cc2)CC1 (as salt: hydrochloride) — lower, 240 to 243 °C
- O=C(Oc1ccc(Oc2ccc(C(F)(F)F)cn2)cc1)N1CCN(CCc2cccs2)CC1 (as salt: hydrochloride) — lower, 236 to 237 °C
- O=C(Oc1ccc(Oc2ccc(C(F)(F)F)cn2)cc1)N1CCN(Cc2ccccn2)CC1 (as salt: hydrochloride) — lower, 189 to 190 °C
- O=C(Oc1ccc(Oc2ccc(C(F)(F)F)cn2)cc1)N1CCN(c2ccc(F)cc2)CC1 (as salt: hydrochloride) — lower, 131 to 132 °C
- O=C(Oc1ccc(Oc2ccc(C(F)(F)F)cc2)cc1)N1CCN(CCOCCO)CC1 (as salt: hydrochloride) — lower, 176 to 178 °C
- O=C(Oc1ccc(Oc2ccc(C(F)(F)F)cc2)cc1)N1CCN(C2CCCCC2)CC1 (as salt: hydrochloride) — higher, 290 to 291 °C
- Cc1ccc(CN2CCN(C(=O)Oc3ccc(Oc4ccc(C(F)(F)F)cc4)cc3)CC2)cc1 (as salt: hydrochloride) — lower, 250 to 252 °C
- COc1ccc(CN2CCN(C(=O)Oc3ccc(Oc4ccc(C(F)(F)F)cn4)cc3)CC2)cc1 (as salt: hydrochloride) — lower, 237 to 238 °C
- O=C(Oc1ccc(Oc2ccc(C(F)(F)F)cn2)cc1)N1CCN(Cc2c(F)cccc2Cl)CC1 (as salt: hydrochloride) — lower, 204 to 205 °C
- COc1cccc(N2CCN(C(=O)Oc3ccc(Oc4ccc(C(F)(F)F)cc4)cc3)CC2)c1 (as salt: hydrochloride) — lower, 168 to 171 °C
- O=C(Oc1ccc(Oc2ncc(C(F)(F)F)cc2Cl)cc1)N1CCN(Cc2ccccc2)CC1 (as salt: hydrochloride) — lower, 111 to 113 °C
- COc1cccc(CN2CCN(C(=O)Oc3ccc(Oc4ccc(C(F)(F)F)cn4)cc3)CC2)c1 (as salt: hydrochloride) — lower, 214 to 215 °C
- O=C(Oc1ccc(Oc2ccc(C(F)(F)F)cn2)cc1)N1CCN(Cc2cccc(F)c2)CC1 (as salt: hydrochloride) — lower, 138 to 139 °C

For O=C(Oc1ccc(Oc2ccc(C(F)(F)F)cn2)cc1)N1CCN(CCc2ccncc2)CC1 (as salt: hydrochloride), the melting point was 268 to 271 °C (dec.).
